Data as given in PubChem BioAssay AID330 (DTP/NCI, 2004).
“And” between values parts separate entries of the source, which are not always exact repeats. Equal values may be shown once. Toxic doses and inconclusive results are not listed.

System: P388 leukemia ip, CD2F1 mice, survival T/C
Experiment: NCI In Vivo Anticancer Drug Screen. Data for tumor model P388 Leukemia (intraperitoneal) in CD2F1 (CDF1) mice
Details: endpoint: median survival time, higher = longer survival
How it was run: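 Mice carrying the transplanted tumor received test compound or vehicle. Survival was recorded in each group, and the value is the treated-group measurement divided by that of the vehicle-treated control group.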

[1] = dose: 25.0 mg/kg/injection, schedule: Q04DX002 (ip), vehicle: saline
[2] = dose: 50.0 mg/kg/injection, schedule: Q04DX002 (ip), vehicle: saline
[3] = dose: 100.0 mg/kg/injection, schedule: Q01DX001 (ip), vehicle: saline with Tween-80
[4] = dose: 200.0 mg/kg/injection, schedule: Q01DX001 (ip), vehicle: saline with Tween-80
[5] = dose: 400.0 mg/kg/injection, schedule: Q01DX001 (ip), vehicle: saline with Tween-80
[6] = dose: 12.5 mg/kg/injection, schedule: Q01DX005 (ip), vehicle: saline with Tween-80
[7] = dose: 50.0 mg/kg/injection, schedule: Q01DX005 (ip), vehicle: saline with Tween-80
[8] = dose: 100.0 mg/kg/injection, schedule: Q01DX005 (ip), vehicle: saline with Tween-80
[9] = dose: 200.0 mg/kg/injection, schedule: Q01DX005 (ip), vehicle: saline with Tween-80
[10] = dose: 50.0 mg/kg/injection, schedule: Q01DX009 (ip), vehicle: saline
[11] = dose: 100.0 mg/kg/injection, schedule: Q01DX009 (ip), vehicle: saline
[12] = dose: 50.0 mg/kg/injection, schedule: Q01DX005 (ip), vehicle: Klucel (hydroxypropylcellulose) (HPC)
[13] = dose: 100.0 mg/kg/injection, schedule: Q01DX005 (ip), vehicle: Klucel (hydroxypropylcellulose) (HPC)
[14] = dose: 200.0 mg/kg/injection, schedule: Q01DX005 (ip), vehicle: Klucel (hydroxypropylcellulose) (HPC)

O=C(OCc1ccccc1)N1C[C@@H](O)[C@H](Br)[C@H]1Cc1ccccc1
T/C (dose: 100.0 mg/kg/injection, schedule: Q01DX001 (ip), vehicle: distilled water + alcohol): 103 % of control
T/C (dose: 200.0 mg/kg/injection, schedule: Q01DX001 (ip), vehicle: distilled water + alcohol): 100 % of control
T/C (dose: 400.0 mg/kg/injection, schedule: Q01DX001 (ip), vehicle: distilled water + alcohol): 97 % of control

COC(=O)NC1CC1C(=O)OC (stereo not drawn)
T/C (dose: 100.0 mg/kg/injection, schedule: Q01DX002 (ip), vehicle: saline): 104 % of control
T/C (dose: 200.0 mg/kg/injection, schedule: Q01DX002 (ip), vehicle: saline): 99 % of control
T/C (dose: 400.0 mg/kg/injection, schedule: Q01DX002 (ip), vehicle: saline): 102 % of control

[Co].[NH-]CCC[NH-].[NH-]CCC[NH-].[NH-]CCC[NH-]
T/C [1]: 99 % of control
T/C [2]: 98 % of control
T/C (dose: 100.0 mg/kg/injection, schedule: Q04DX002 (ip), vehicle: saline): 100 % of control

C=Cc1ccc(NC(=O)CCn2ccc(N)nc2=O)cc1
T/C [3]: 102 % of control
T/C [4]: 102 % of control
T/C [5]: 103 % of control

CC(=O)OCc1ccc(O)c(C=O)c1
T/C [6]: 118 % of control
T/C [7]: 113 % of control

CC(CC(=O)O)C(C(=O)O)C(=O)O (stereo not drawn)
T/C (dose: 50.0 mg/kg/injection, schedule: Q01DX005 (ip), vehicle: saline): 104 % of control
T/C (dose: 100.0 mg/kg/injection, schedule: Q01DX005 (ip), vehicle: saline): 101 % of control

CN=C(N)N/N=C(\C)c1ccc2ccccc2c1
T/C (dose: 12.5 mg/kg/injection, schedule: Q04DX002 (ip), vehicle: saline): 103 % of control
T/C [1]: 101 % of control
T/C [2]: 112 % of control

C1=C[N-]c2c3c(ccc2=C1)=CC=C[N-]3.O=S(=O)(O)O.[Zn+2]
T/C (dose: 3.12 mg/kg/injection, schedule: Q04DX002 (ip), vehicle: Klucel (hydroxypropylcellulose) (HPC)): 108 % of control
T/C (dose: 6.25 mg/kg/injection, schedule: Q04DX002 (ip), vehicle: Klucel (hydroxypropylcellulose) (HPC)): 100 % of control
T/C (dose: 12.5 mg/kg/injection, schedule: Q04DX002 (ip), vehicle: Klucel (hydroxypropylcellulose) (HPC)): 109 % of control
T/C (dose: 25.0 mg/kg/injection, schedule: Q04DX002 (ip), vehicle: Klucel (hydroxypropylcellulose) (HPC)): 111 % of control

COc1ccc(CCNc2cc3ncn(C)c(=O)c3cc2[N+](=O)[O-])cc1OC
T/C (dose: 100.0 mg/kg/injection, schedule: Q04DX003 (ip), vehicle: Klucel (hydroxypropylcellulose) (HPC)): 101 % of control
T/C (dose: 200.0 mg/kg/injection, schedule: Q04DX003 (ip), vehicle: Klucel (hydroxypropylcellulose) (HPC)): 100 % of control
T/C (dose: 400.0 mg/kg/injection, schedule: Q04DX003 (ip), vehicle: Klucel (hydroxypropylcellulose) (HPC)): 86 % of control

CC1(C)CC([N+](C)(C)CCCCCC[N+](C)(C)C2CC(C)(C)N(O)C(C)(C)C2)CC(C)(C)N1O
T/C (dose: 12.5 mg/kg/injection, schedule: Q04DX003 (ip), vehicle: saline): 105 % of control
T/C (dose: 25.0 mg/kg/injection, schedule: Q04DX003 (ip), vehicle: saline): 100 % of control
T/C (dose: 50.0 mg/kg/injection, schedule: Q04DX003 (ip), vehicle: saline): 103 % of control and 108 % of control

NS(=O)(=O)c1ccc(NC(=O)C2C(=O)N(c3ccc(S(N)(=O)=O)cc3)C(=O)/C2=N/O)cc1 (stereo not drawn)
T/C (dose: 60.0 mg/kg/injection, schedule: Q01DX005 (ip), vehicle: saline with Tween-80): 111 % of control
T/C (dose: 120.0 mg/kg/injection, schedule: Q01DX005 (ip), vehicle: saline with Tween-80): 110 % of control
T/C (dose: 240.0 mg/kg/injection, schedule: Q01DX005 (ip), vehicle: saline with Tween-80): 101 % of control

COC(=O)C1=CO[C@@H](C)[C@@H]2CN3CCc4c([nH]c5ccc(OC)cc45)[C@@H]3C[C@H]12
T/C [7]: 106 % of control
T/C [8]: 101 % of control
T/C [9]: 105 % of control

COc1ccc(-c2coc3c4c(c(CC=C(C)C)c(OC)c3c2=O)OC(C)(C)C=C4)cc1OC
T/C [6]: 102 % of control
T/C (dose: 25.0 mg/kg/injection, schedule: Q01DX005 (ip), vehicle: saline with Tween-80): 100 % of control
T/C [7]: 98 % of control and 91 % of control

ClCCN(CCCl)c1ccc(CCN2CCOCC2)cc1
T/C (dose: 6.25 mg/kg/injection, schedule: Q01DX009 (ip), vehicle: saline): 100 % of control and 113 % of control
T/C (dose: 12.5 mg/kg/injection, schedule: Q01DX009 (ip), vehicle: saline): 150 % of control and 154 % of control
T/C (dose: 25.0 mg/kg/injection, schedule: Q01DX009 (ip), vehicle: saline): 150 % of control and 220 % of control

CCOC(=O)Nc1cc2c(c(N)n1)N=C(c1ccccc1)CN2C
T/C (dose: 12.5 mg/kg/injection, schedule: Q01DX001 (ip), vehicle: saline with Tween-80): 111 % of control
T/C (dose: 25.0 mg/kg/injection, schedule: Q01DX001 (ip), vehicle: saline with Tween-80): 101 % of control
T/C (dose: 50.0 mg/kg/injection, schedule: Q01DX001 (ip), vehicle: saline with Tween-80): 111 % of control and 97 % of control
T/C [3]: 112 % of control
T/C [4]: 106 % of control

O=c1c(Br)c(Cl)nc2ccccn12
T/C [3]: 90 % of control
T/C [4]: 100 % of control
T/C [5]: 95 % of control

CS1(=O)=NC(=NC#N)c2ccccc21 (stereo not drawn)
T/C (dose: 50.0 mg/kg/injection, schedule: Q01DX009 (ip), vehicle: Klucel (hydroxypropylcellulose) (HPC)): 101 % of control
T/C (dose: 100.0 mg/kg/injection, schedule: Q01DX009 (ip), vehicle: Klucel (hydroxypropylcellulose) (HPC)): 94 % of control

CC(F)C(N)C(=O)O (stereo not drawn)
T/C (dose: 6.25 mg/kg/injection, schedule: Q01DX009 (ip), vehicle: Klucel (hydroxypropylcellulose) (HPC)): 108 % of control and 117 % of control
T/C (dose: 12.5 mg/kg/injection, schedule: Q01DX009 (ip), vehicle: Klucel (hydroxypropylcellulose) (HPC)): 110 % of control and 118 % of control
T/C (dose: 25.0 mg/kg/injection, schedule: Q01DX009 (ip), vehicle: Klucel (hydroxypropylcellulose) (HPC)): 116 % of control
T/C [10]: 106 % of control
T/C [11]: 124 % of control

N#CC1=C(C#N)CC2C(C1)OC1CC(C#N)=C(C#N)CC12 (stereo not drawn)
T/C [10]: 100 % of control
T/C [11]: 101 % of control
T/C (dose: 200.0 mg/kg/injection, schedule: Q01DX009 (ip), vehicle: saline): 100 % of control

CC1(C)CC(=O)C(C(c2cccc([N+](=O)[O-])c2)C2C(=O)CC(C)(C)CC2=O)C(=O)C1
T/C [12]: 96 % of control
T/C [13]: 98 % of control
T/C [14]: 102 % of control

NNC(=O)CN(CC(=O)NN)CC(=O)NN
T/C (dose: 50.0 mg/kg/injection, schedule: Q01DX005 (ip), vehicle: water): 99 % of control
T/C (dose: 100.0 mg/kg/injection, schedule: Q01DX005 (ip), vehicle: water): 101 % of control
T/C (dose: 200.0 mg/kg/injection, schedule: Q01DX005 (ip), vehicle: water): 110 % of control

O=C(O)c1cc2c(c(C(=O)O)c1O)CCCC2
T/C (dose: 6.25 mg/kg/injection, schedule: Q01DX005 (ip), vehicle: saline): 94 % of control
T/C (dose: 12.5 mg/kg/injection, schedule: Q01DX005 (ip), vehicle: saline): 92 % of control
T/C (dose: 25.0 mg/kg/injection, schedule: Q01DX005 (ip), vehicle: saline): 94 % of control

CN(NC1OC(=O)c2ccccc21)c1ccc(C(F)(F)F)cc1[N+](=O)[O-] (stereo not drawn)
T/C (dose: 60.0 mg/kg/injection, schedule: Q01DX005 (ip), vehicle: Klucel (hydroxypropylcellulose) (HPC)): 95 % of control
T/C (dose: 120.0 mg/kg/injection, schedule: Q01DX005 (ip), vehicle: Klucel (hydroxypropylcellulose) (HPC)): 98 % of control
T/C (dose: 240.0 mg/kg/injection, schedule: Q01DX005 (ip), vehicle: Klucel (hydroxypropylcellulose) (HPC)): 100 % of control

O=C(O)c1cccc(Cl)c1 (tested in a mixture with another compound)
T/C [3]: 94 % of control
T/C [4]: 99 % of control
T/C [5]: 95 % of control

CCOc1ccc2c(c1)[n+](=O)c1ccc(Cl)cc1n2[O-]
T/C [7]: 104 % of control and 111 % of control and 118 % of control
T/C [8]: 104 % of control and 116 % of control and 118 % of control
T/C [9]: 112 % of control

CC(=O)OC(OC(C)=O)C(CSC#N)SC#N (stereo not drawn)
T/C (dose: 6.25 mg/kg/injection, schedule: Q01DX005 (ip), vehicle: Klucel (hydroxypropylcellulose) (HPC)): 99 % of control
T/C (dose: 12.5 mg/kg/injection, schedule: Q01DX005 (ip), vehicle: Klucel (hydroxypropylcellulose) (HPC)): 99 % of control
T/C (dose: 25.0 mg/kg/injection, schedule: Q01DX005 (ip), vehicle: Klucel (hydroxypropylcellulose) (HPC)): 99 % of control
T/C [12]: 102 % of control
T/C [13]: 96 % of control
T/C [14]: 113 % of control
